Values quoted from earlier work in US8168241B2, “Performance-enhancing dietary supplement” (Reliv International, Inc., priority 1998, dated 2012).

What was measured:
[1] = co-administration of piper nigrum extract; double blind studies
[2] = resulting from the ingestion of CLA

| Compound | bioavailability [1] | reduction in body fat [2] [%] |
| --- | --- | --- |
| COC1=C(OC)C(=O)C(C/C=C(\C)CC/C=C(\C)CC/C=C(\C)CC/C=C(\C)CC/C=C(\C)CC/C=C(\C)CC/C=C(\C)CC/C=C(\C)CC/C=C(\C)CCC=C(C)C)=C(C)C1=O [coenzyme Q10] | significantly increased | – |
| conjugated linoleic acid [CLA] | – | ≤ 20 |
